Results: US20230036339A1, “BIOACTIVE IMPLANTS FOR DRUG DELIVERY” (The Queen's University of Belfast, priority 2019, published 2023)
Several values for one entry are separate records, joined by “and”; a condition that tells them apart may be missing. Equal entries are not always repeated. Marks after values point to notes of the source that are not given here. Blank lines part the entries; values can stand above or below the compound they belong to.

How the values were obtained:
[1] = cited from earlier work
[2] = Thermogravimetric analysis (TGA), thermal stability; type: physicochemical; details: 10° C. min-1, reported at 5% weight loss
Protocol: TGA was utilised to determine thermal stability. Initially the starting materials (LIDO, MA, SA and GMS) were analysed to deduce the degradation temperature. The excipients were exposed to a heating ramp from room temperature (circa 20° C.) to 500° C., at 10° C. min-1.
LIDO and the relevant lipids were weighed and heated at 80° C. until molten. The samples were given 24 hours to cool/solidify before they were ground using a mortar and pestle for 2 min. The resultant systems were heated at 10° C. min-1 from room temperature to 350° C. All TGA experiments were conducted in triplicates, using Perkin-Elmer Aluminum Non-Hermetic DSC pans. Nitrogen (60 mL min-1) was used as the purge gas. The degradation temperature was reported at 5% weight loss. Analysis was performed using TA Universal analysis software.
Consequently, TGA is an essential technique used to inform the suitability of these materials and processing conditions of HME. The thermal degradation temperature was reported at 5% weight loss.

[3] = Assessment of drug loading capacity of EVA
[4] = Lidocaine and myristic acid remaining post-implantation; type: in vivo; details: individual sheep
Protocol: The components of the outer coating were dissolved by sonication in dicholoromethane and the volume was then made up to 50 ml. Two ml of this solution was dried for 1 h at 50° C. and reconstituted in 100 ml methanol. The methanolic solutions were appropriately diluted in the mobile phase for assay by LCMS-MS.

[5] = In vivo sheep study, pharmacokinetics of lidocaine and myristic acid; details: FIG. 25

Mean Degradation Temperature ± SD ([2]; listed as GMS): 197.34 °C and 197.34 ± 8.23 °C
Structure (SMILES): CCCCCCCCCCCCCCCCCC(=O)OCC(O)CO (centres unmarked) [Glycerol Monostearate]
LogP [1]: 5.97

Structure (SMILES): CCN(CC)CC(=O)Nc1c(C)cccc1C [Lidocaine, 2-(diethyl-amino)-N-(2,6-dimethylpheny)-acetamide, reference compound]
Lidocaine concentration at which it crystalises out ([3]; in EVA 33%): > 10% | Lidocaine concentration over which it crystallises out ([3]; solvent cast EVA film or EVA polymer implant): 9-10 % w/w | Mean Degradation Temperature ± SD ([2]; listed as LIDO): 164.40 ± 1.30 °C | Mean Degradation Temperature ± SD ([2]; listed as lidocaine): 164.40 °C

Myristic acid % Remaining ([4]; in co-extrudate after 7 days implantation, listed as Myristic acid): <4.00* % | Myristic acid % Remaining ([4]; in co-extrudate after 7 days implantation, listed as myristic acid): too low to quantify | Mean Degradation Temperature ± SD ([2]; listed as MA): 177.55 °C and 177.55 ± 0.82 °C
Structure (SMILES): CCCCCCCCCCCCCC(=O)O [Myristic Acid]
Myristic acid % Remaining ([4]; in co-extrudate after 3 days implantation, mean ± SD n=3): 10.04 ± 1.82% and 16.91 ± 6.77% and 11.21 ± 0.98% | LogP [1]: 5.37 | Concentration in peritoneal fluid compared to plasma [5]: higher concentrations again observed in peritoneal fluid

Mean Degradation Temperature ± SD ([2]; listed as SA): 201.75 °C and 201.75 ± 4.12 °C
Structure (SMILES): CCCCCCCCCCCCCCCCCC(=O)O [Stearic Acid]
LogP [1]: 7.15
